Experiments:
Format in all cases: cell-based
[1] = test system: human colon carcinoma cell line HCT116; assay: Caspase cascade activation in HCT116 cells; conditions: HCT-116, 48 h incubation, read-out: caspase potency EC50 HCT116
Method in brief: (§1)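 Cells in ATCC-specified medium plus 10% FCS were exposed to test compound at 0.016 to 10 μM final for 48 h at 37 °C. Lysis buffer (pH 7.2 PIPES, DTT, lysolecithin) with 14 μM Ac-DEVD-R110 substrate was then added and fluorescence (ex 485/em 530 nm) read after 3 h at room temperature.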

[2] = test system: human cancer cell line H1299; assay: Caspase cascade activation in H1299 cells; conditions: NCI-H1299, 48 h incubation, read-out: caspase potency EC50 H1299
Experimental: Human breast cancer cell lines T-47D, human hepatocellular carcinoma cell line SNU398, human colon carcinoma cell line HCT116, human cancer cell line H11299, human Burkitt's lymphoma cell line Namalwa, human lymphoma cell line Raji, and human B cell lymphoblastoid cell line Ramos were grown according to media component mixtures designated by American Type Culture Collection+10% FCS (Invitrogen Corporation), in a 5% CO2-95% humidity incubator at 37° C. T-47D and H1299 cells were maintained at a cell density between 50 and 80% confluency at a cell density of 0.1 to 0.6×10^6 cells/mL. Cells were harvested at 600×g and resuspended at 0.65×10^6 cells/mL into appropriate media+10% FCS. An aliquot of 22.5 μL of cells was added to a well of a 384-well microtiter plate containing 2.5 μL of a 10% DMSO in RPMI-1640 media solution containing 0.16 to 100 μM of 6-(3,4-dimethoxyphenyl)-3-(2-methoxyphenyl)-[1,2,4]triazolo[3,4-b][1,3,4]thiadiazole or other test compound (0.016 to 10 μM final). An aliquot of 22.5 μL of cells was added to a well of a 384-well microtiter plate containing 2.5 μL of a 10% DMSO in RPMI-1640 media solution without test compound as the control sample. The samples were mixed by agitation and then incubated at 37° C. for 48 h in a 5% CO2-95% humidity incubator. After incubation, the samples were removed from the incubator and 25 μL of a solution containing 14 μM of N-(Ac-DEVD)-N′-ethoxycarbonyl-R110 (SEQ ID No.:1) fluorogenic substrate (Cytovia, Inc.; WO99/18856), 20% sucrose (Sigma), 20 mM DTT (Sigma), 200 mM NaCl (Sigma), 40 mM Na PIPES buffer pH 7.2 (Sigma), and 500 μg/mL lysolecithin (Calbiochem) was added. The samples were mixed by agitation and incubated at room temperature. Using a fluorescent plate reader (Model SPECTRAfluor Plus, Tecan), an initial reading (T=0) was made approximately 1-2 min after addition of the substrate solution, employing excitation at 485 nm and emission at 530 nm, to determine the background fluorescence of the control sample. After the 3 h incubation, the samples were read for fluorescence as above (T=3 h).
The Relative Fluorescence Unit values (RFU) were used to calculate the sample readings as follows: RFU(T=3h)−Control RFU(T=0)=Net RFU(T=3h)
The activity of caspase cascade activation was determined by the ratio of the net RFU value for 6-(3,4-dimethoxyphenyl)-3-(2-methoxyphenyl)-[1,2,4]triazolo[3,4-b][1,3,4]thiadiazole (Example I) or other test compound to that of control samples. The EC50 (nM) was determined by a sigmoidal dose-response calculation (Prism 3.0, GraphPad Software Inc.).

[3] = test system: Human breast cancer cell lines T-47D; assay: Inhibition of cell proliferation (GI50, CellTiter-Glo) in T-47D cells; conditions: T47D cells, 48 h incubation
Experimental: (§2) Human breast cancer cell lines T-47D, MX1 and MDAMB435, human colon carcinoma cell line HCT116, human leukemia cell line K562, human lymphoma cell line Raji, human B cell lymphoblastoid cell line Ramos, and human Burkitt's lymphoma cell line Namalwa were grown and harvested as in Example 14. An aliquot of […] of cells (4.4×10^4 cells/mL) was added to a well of a 96-well microtiter plate containing 5 μL of a 10% DMSO in RPMI-1640 media solution containing 10 nM to 100 μM of 6-(3,4-dimethoxyphenyl)-3-(2-methoxyphenyl)-[1,2,4]triazolo[3,4-b][1,3,4]thiadiazole (1 nM to 10 μM final). An aliquot of 45 μL of cells was added to a well of a 96-well microtiter plate containing 5 μL of a 10% DMSO in RPMI-1640 media solution without compound as the control sample for maximal cell proliferation (LMax). The samples were mixed by agitation and then incubated at 37° C. for 48 h in a 5% CO2-95% humidity incubator. After incubation, the samples were removed from the incubator and 25 μL of CellTiter-Glo™ reagent (Promega) was added. The samples were mixed by agitation and incubated at room temperature for 10-15 min. Plates were then read using a luminescent plate reader (Model SPECTRAfluor Plus, Tecan) to give Ltest values.
(§3) The samples were mixed by agitation and then incubated at 37° C. for 0.5 h in a 5% CO2-95% humidity incubator. After incubation, the samples were removed from the incubator and 25 μL of CellTiter-Glo™ reagent (Promega) was added. The samples were mixed by agitation and incubated at […] 10-15 min at room temperature in a 5% CO2-95% humidity incubator. Fluorescence was read as above, (LStart) defining luminescence for initial cell number used as baseline in GI50 determinations.
(§4) GI50 (dose for 50% inhibition of cell proliferation) is the concentration where [(LTest−LStart)/(LMax−LStart)]=0.5.

[4] = test system: Human breast cancer cell lines MDAMB435; assay: Inhibition of cell proliferation (GI50) in MDAMB435 cells; conditions: MDA MB 435 cells, 48 h incubation
Experimental: as §2, §3, §4

[5] = test system: human B cell lymphoblastoid cell line Ramos; assay: Caspase cascade activation in Ramos cells; conditions: 48 h incubation, read-out: caspase potency EC50 RAMOS
Method in brief: as §1

[6] = test system: Human breast cancer cell lines MX1; assay: Inhibition of cell proliferation (GI50) in MX1 cells; conditions: 48 h incubation
Experimental: as §2, §3, §4

[7] = test system: human lymphoma cell line Raji; assay: Caspase cascade activation in Raji cells; conditions: RAJ1 cells, 48 h incubation, read-out: caspase potency EC50 RAJ1
Method in brief: as §1

[8] = test system: Human breast cancer cell lines T-47D; assay: Caspase cascade activation (Ac-DEVD-R110 fluorogenic substrate) in T-47D cells; conditions: T47D cells, 48 h incubation, read-out: caspase potency EC50 T47D
Method in brief: as §1

[9] = test system: human Burkitt's lymphoma cell line Namalwa; assay: Caspase cascade activation in Namalwa cells; conditions: Burkitts lymphoma cell, 48 h incubation, read-out: caspase potency EC50 Namalwa
Method in brief: as §1

[10] = test system: human hepatocellular carcinoma cell line SNU398; assay: Caspase cascade activation in SNU398 cells; conditions: SNU-398, 48 h incubation, read-out: caspase potency EC50 SNU398
Method in brief: as §1

[11] = test system: human lymphoma cell line Raji; assay: Inhibition of cell proliferation (GI50) in Raji cells; conditions: 48 h incubation
Experimental: as §2, §3, §4

[12] = test system: human colon carcinoma cell line HCT116; assay: Inhibition of cell proliferation (GI50) in HCT116 cells; conditions: HCT 116 cells, 48 h incubation
Experimental: as §2, §3, §4

[13] = test system: human leukemia cell line K562; assay: Inhibition of cell proliferation (GI50) in K562 cells; conditions: 48 h incubation
Experimental: as §2, §3, §4

[14] = test system: human B cell lymphoblastoid cell line Ramos; assay: Inhibition of cell proliferation (GI50) in Ramos cells; conditions: 48 h incubation
Experimental: as §2, §3, §4

[15] = test system: human Burkitt's lymphoma cell line Namalwa; assay: Inhibition of cell proliferation (GI50) in Namalwa cells; conditions: Burkitts lymphoma cell, 48 h incubation
Experimental: as §2, §3, §4

SMILES | EC50 [1] | EC50 [2] | GI50 [3] | GI50 [4] | EC50 [5] | GI50 [6] | EC50 [7] | EC50 [8] | EC50 [9] | EC50 [10] | GI50 [11] | GI50 [12] | GI50 [13] | GI50 [14] | GI50 [15]
CCc1cc(-c2nnc3sc(-c4ccc(C)cc4)nn23)n(C)n1 [A, 3-(3-Ethyl-1-methyl-1H-pyrazol-5-yl)-6-p-tolyl-[1,2,4]triazolo[3,4-b][1,3,4]thiadiazole] | 5450 nM | 3160 nM | 2730 nM | 253 nM | > 10000 nM | 4080 nM | > 10000 nM | 3680 nM | > 10000 nM | 1860 nM | – | – | – | – | –
CCc1cc(-c2nnc3sc(-c4ccc(OC)cc4)nn23)n(C)n1 [C, 3-(3-Ethyl-1-methyl-1H-pyrazol-5-yl)-6-(4-methoxyphenyl)-[1,2,4]triazolo[3,4-b][1,3,4]thiadiazole] | 4570 nM | – | 900 nM | – | 566 nM | 9000 nM | > 10000 nM | 4030 nM | 574 nM | 1720 nM | – | – | – | – | –
COc1ccc(-c2nn3c(-c4ccccc4C)nnc3s2)cc1OC [E, 6-(3,4-Dimethoxyphenyl)-3-o-tolyl-[1,2,4]triazolo[3,4-b][1,3,4]thiadiazole] | 5020 nM | 3000 nM | 3850 nM | 894 nM | 235 nM | 4000 nM | 274 nM | 561 nM | 253 nM | 507 nM | 9400 nM | 6220 nM | 2490 nM | 3000 nM | 7870 nM
CCN(CC)c1ccc(-c2nn3c(-c4n[nH]c5c4CCC5)nnc3s2)cc1 [Entry K1, 6-(4-Diethylaminophenyl)-3-(1,4,5,6-tetrahydrocyclopenta[c]pyrazol-3-yl)-[1,2,4]triazolo[3,4-b][1,3,4]thiadiazole] | 1020 nM | – | 167 nM | – | 585 nM | – | 617 nM | 636 nM | 580 nM | – | – | 497 nM | – | – | 138 nM
Cc1ccc(-c2nn3c(-c4n[nH]c5c4CCC5)nnc3s2)cc1 [Entry M1, 6-(4-Methylphenyl)-3-(1,4,5,6-tetrahydrocyclopenta[c]pyrazol-3-yl)-[1,2,4]triazolo[3,4-b][1,3,4]thiadiazole] | 67 nM | – | 200 nM | – | 40 nM | – | 81 nM | 395 nM | 39 nM | 34 nM | – | 89 nM | – | – | 16 nM
COc1ccc(-c2nn3c(-c4ccccc4Cl)nnc3s2)cc1OC [F, 3-(2-Chlorophenyl)-6-(3,4-dimethoxyphenyl)-[1,2,4]triazolo[3,4-b][1,3,4]thiadiazole] | 5160 nM | 5310 nM | 4030 nM | 1070 nM | 5300 nM | 4000 nM | 5270 nM | 2690 nM | 5320 nM | 4460 nM | 8000 nM | 7920 nM | 2730 nM | 4000 nM | 9040 nM
COc1ccccc1-c1nnc2sc(-c3ccc(Br)cc3)nn12 [H, 6-(4-Bromophenyl)-3-(2-methoxyphenyl)-[1,2,4]triazolo[3,4-b][1,3,4]thiadiazole] | 537 nM | 733 nM | 217 nM | 48 nM | 253 nM | 400 nM | 501 nM | 563 nM | 344 nM | 261 nM | 700 nM | 844 nM | 626 nM | 120 nM | 520 nM
COc1ccc(-c2nn3c(-c4ccccc4OC)nnc3s2)cc1OC [I, 6-(3,4-dimethoxyphenyl)-3-(2-methoxyphenyl)-[1,2,4]triazolo[3,4-b][1,3,4]thiadiazole] | 523 nM | 808 nM | 261 nM | 136 nM | 349 nM | 1030 nM | 521 nM | 563 nM | 412 nM | 300 nM | 2000 nM | 2000 nM | 2080 nM | 2000 nM | 2000 nM

Source: patent publication US7732468B2, “3-aryl-6-aryl-[ 1,2,4]triazolo[3,4-b][1,3,4]thiadiazoles and related compounds as activators of caspases and inducers of apoptosis and the use thereof” (Cytovia, Inc., priority 2006, dated 2010)
